Tests used:
[1] = system: guinea pig models of pulmonary disease; conditions: cited from earlier work
[2] = system: patients with COPD; experiment: Pharmacodynamic and safety assessments (ECG, vital signs, serum potassium, adverse events, laboratory), Example 2; type: in vivo, human
Experimental: Twelve-lead electrocardiograms (ECGs) were conducted after the subject had been resting and supine for ≧3 minutes. In addition to screening and pre-treatment baseline (Day 0) measurements, ECGs were also recorded at specific times during the treatment period. All 12-lead ECG monitors used for this study were calibrated and standardized. The ventricular rate, PR interval (the time elapsing between the beginning of the P wave and the beginning of the QRS interval in an electrocardiogram, corresponding to the electrical activity through the atria), QRS interval (the movement of electrical impulses through the ventricles), QT/QTc interval (the QT interval measures the time between the start of the Q wave and the end of the T wave in the heart's electrical cycle; QTc is a corrected QT interval, as determined by Fridericia's formula [QTcF] and Bazett's formula [QTcB]), and the overall ECG interpretation (normal or abnormal) were documented. Measurements were recorded prior to collection of any blood samples, where applicable. At least three original copies of each ECG (one each for the site, for the sponsor, and for the central ECG provider) were made. […]
Vital signs (heart rate and systolic blood pressure) were measured after the subject had been sitting for ≧3 minutes. […] Measurements were recorded prior to the collection of any blood samples, where applicable. […]

SMILES: CCOc1ccc(-c2nc(-c3cccc(C(=O)O)n3)cs2)cc1OCC [Tetomilast, 2-(3,4-diethoxyphenyl)-4-(2-carboxy-6-pyridyl)thiazole]
- airway resistance and peak expiration flow [1]: improve
- changes in heart rate, systolic blood pressure, serum potassium, or QT interval versus placebo ([2]; oral tetomilast in combination with Advair Diskus 250/50): No clinically meaningful changes
- differences in adverse events, serum chemistry, hematology, or urinalysis versus placebo ([2]; oral tetomilast with inhaled Advair Diskus 250/50): no clinically meaningful differences

Source: patent US20120010179A1, “Methods of using a thiazole derivative” (priority 2006, published 2012)
